Consider 71 compounds from ChEMBL document CHEMBL2390846, “Small-molecule pyrimidine inhibitors of the cdc2-like (Clk) and dual specificity tyrosine phosphorylation-regulated (Dyrk) kinases: development of chemical probe ML315” (Bioorg Med Chem Lett, 2013).

Experiment [1] has as its target T1, Dual specificity protein kinase CLK4 (Homo sapiens, UniProt Q9HAZ1). Briefly: Inhibition of CLK4 (unknown origin) by bioluminescence assay.
Experiment [2] deals with T2, Dual specificity tyrosine-phosphorylation-regulated kinase 1A (Homo sapiens, UniProt Q13627). The experiment is described as follows: Inhibition of DYRK1A (unknown origin) by bioluminescence assay.
Experiment [3] has as its target Dual specificity protein kinase CLK2 (Homo sapiens, UniProt P49760).
Experiment [4] addresses T2, Dual specificity tyrosine-phosphorylation-regulated kinase 1A.
Experiment [5] deals with Dual specificity protein kinase CLK1 (Homo sapiens, UniProt P49759).
Sequence of Dual specificity protein kinase CLK1 (P49759 whole entry): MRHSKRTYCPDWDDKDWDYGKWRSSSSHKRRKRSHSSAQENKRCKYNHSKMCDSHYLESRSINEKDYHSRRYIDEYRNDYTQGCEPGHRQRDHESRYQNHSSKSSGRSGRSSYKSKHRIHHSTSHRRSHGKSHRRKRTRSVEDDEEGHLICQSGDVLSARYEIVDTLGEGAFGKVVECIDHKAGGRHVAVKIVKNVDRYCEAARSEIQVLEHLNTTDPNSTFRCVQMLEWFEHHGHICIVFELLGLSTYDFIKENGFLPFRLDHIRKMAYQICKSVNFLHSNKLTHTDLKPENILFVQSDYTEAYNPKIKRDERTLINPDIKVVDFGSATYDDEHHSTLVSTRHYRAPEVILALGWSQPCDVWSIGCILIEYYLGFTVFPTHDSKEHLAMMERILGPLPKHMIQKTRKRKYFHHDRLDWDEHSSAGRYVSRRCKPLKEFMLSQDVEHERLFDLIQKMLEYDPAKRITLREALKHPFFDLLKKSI
Experiment [6] addresses Dual specificity tyrosine-phosphorylation-regulated kinase 1B (Homo sapiens, UniProt Q9Y463).
Experiment [7] concerns the target T1, Dual specificity protein kinase CLK4.

Structures are written as SMILES. Where only a bound is given, the exact number is not on record here.

T1 sequence (Q9HAZ1 whole entry): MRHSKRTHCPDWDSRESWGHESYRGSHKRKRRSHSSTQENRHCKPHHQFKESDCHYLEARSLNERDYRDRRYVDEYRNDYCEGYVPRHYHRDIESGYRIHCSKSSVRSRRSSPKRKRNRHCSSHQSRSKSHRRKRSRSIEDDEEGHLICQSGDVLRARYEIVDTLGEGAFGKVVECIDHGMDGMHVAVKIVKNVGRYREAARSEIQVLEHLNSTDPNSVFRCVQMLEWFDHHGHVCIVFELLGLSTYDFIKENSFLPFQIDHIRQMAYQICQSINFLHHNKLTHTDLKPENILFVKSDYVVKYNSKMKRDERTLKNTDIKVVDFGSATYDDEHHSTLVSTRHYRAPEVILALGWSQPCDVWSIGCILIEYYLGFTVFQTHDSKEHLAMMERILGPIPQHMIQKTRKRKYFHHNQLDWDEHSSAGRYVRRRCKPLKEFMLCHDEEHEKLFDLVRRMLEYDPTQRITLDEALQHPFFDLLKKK
Sequence of Dual specificity tyrosine-phosphorylation-regulated kinase 1B (Q9Y463 whole entry): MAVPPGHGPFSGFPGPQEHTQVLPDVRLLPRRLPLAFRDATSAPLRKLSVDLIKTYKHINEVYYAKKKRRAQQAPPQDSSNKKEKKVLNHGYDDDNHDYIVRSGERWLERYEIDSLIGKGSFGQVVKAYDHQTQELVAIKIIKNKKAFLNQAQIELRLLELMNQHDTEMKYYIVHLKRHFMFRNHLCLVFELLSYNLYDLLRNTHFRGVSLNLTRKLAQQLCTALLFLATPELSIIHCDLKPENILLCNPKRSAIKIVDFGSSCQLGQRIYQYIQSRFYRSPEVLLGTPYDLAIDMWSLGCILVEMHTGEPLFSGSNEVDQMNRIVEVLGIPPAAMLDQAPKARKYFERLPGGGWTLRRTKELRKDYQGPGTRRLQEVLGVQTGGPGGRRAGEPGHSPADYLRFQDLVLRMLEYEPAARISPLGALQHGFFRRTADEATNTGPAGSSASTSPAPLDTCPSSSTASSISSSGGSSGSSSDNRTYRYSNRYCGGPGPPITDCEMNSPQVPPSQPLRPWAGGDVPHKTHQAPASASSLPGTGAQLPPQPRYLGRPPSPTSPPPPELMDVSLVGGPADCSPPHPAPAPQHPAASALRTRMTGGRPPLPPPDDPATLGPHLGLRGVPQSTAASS
Sequence of Dual specificity protein kinase CLK2 (P49760 whole entry): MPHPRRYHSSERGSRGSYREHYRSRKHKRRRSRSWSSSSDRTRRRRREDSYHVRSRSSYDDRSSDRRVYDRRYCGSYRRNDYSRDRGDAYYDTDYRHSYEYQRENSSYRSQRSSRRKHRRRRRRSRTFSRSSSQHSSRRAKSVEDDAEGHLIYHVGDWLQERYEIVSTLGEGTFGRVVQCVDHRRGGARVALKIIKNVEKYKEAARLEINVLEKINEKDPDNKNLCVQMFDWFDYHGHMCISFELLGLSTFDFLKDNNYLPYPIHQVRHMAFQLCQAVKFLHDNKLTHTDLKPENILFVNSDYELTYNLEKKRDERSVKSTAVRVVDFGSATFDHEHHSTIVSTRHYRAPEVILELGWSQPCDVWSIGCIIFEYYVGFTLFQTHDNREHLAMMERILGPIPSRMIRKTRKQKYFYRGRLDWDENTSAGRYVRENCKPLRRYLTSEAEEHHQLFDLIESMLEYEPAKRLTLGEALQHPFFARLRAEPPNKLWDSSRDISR

`N#Cc1cccc(-c2nccc(NCc3ccccc3)n2)c1`: the IC50 in experiment [1] (read-out: IC50) was determined as 14.1 µM.
As for `c1cncc(CNc2ncncc2-c2ccc3c(c2)OCO3)c1`, the IC50 is 26 µM in experiment [2] (read-out: IC50); more than 10 µM in experiment [3]; more than 10 µM in experiment [4]; 4.8 µM in experiment [5]; more than 10 µM in experiment [6].
`COc1cccc(-c2nccc(NCc3ccccc3)n2)c1`: the IC50 in experiment [1] (read-out: IC50) came to 15.8 µM.
On the same count and under the same terms, the result for `c1cncc(-c2cc(-n3ccnc3)ncn2)c1` reads 0.79 µM.
The same measure, in the same setting: the result for `c1cncc(CNc2ccnc(-c3ccc4c(c3)OCO4)n2)c1` reads 0.063 µM.
As for `c1cncc(CNc2cc(-c3ccc4c(c3)OCO4)ncn2)c1`, the IC50 in experiment [1] (read-out: IC50) is 6.54 µM; in experiment [2] (read-out: IC50), 16.4 µM.
As to `CN(C)c1ccc(-c2nccc(NCc3ccccc3)n2)cc1`, the IC50 result in experiment [1] and in experiment [2] was “Not Active” throughout.
On to `c1ccc(CNc2ccnc(-c3cccnc3)n2)cc1`, for which the IC50 in experiment [1] (read-out: IC50) amounted to 31.6 µM.
For `c1ccc(CNc2ccnc(-c3ccc4c(c3)OCO4)n2)cc1`, the IC50 stood at 23.2 µM in experiment [1] (read-out: IC50) and 26 µM in experiment [2] (read-out: IC50).
With `COc1ccccc1CNc1ncncc1-c1ccc2c(c1)OCO2`, the IC50 in experiment [1] (read-out: IC50) is 2.2 µM.
Regarding `c1cncc(CNc2ccnc(-c3ccc4cn[nH]c4c3)n2)c1`, the IC50 was found to be 1.29 µM in experiment [7]; 0.29 µM in experiment [1] (read-out: IC50); 2.07 µM in experiment [2] (read-out: IC50); 1.9 µM in experiment [3]; 1.43 µM in experiment [4]; 1.6 µM in experiment [5]. The IC50 in experiment [6] was 0.829 µM.
Turning to `Clc1ccc(CNc2ncncc2-c2ccc3c(c2)OCO3)cc1`, the IC50 was found to be 9.28 µM in experiment [7]; 5.82 µM in experiment [1] (read-out: IC50); 26 µM in experiment [2] (read-out: IC50); 8.79 µM in experiment [3]; 4.58 µM in experiment [4]; 2.37 µM in experiment [5]. In addition, in experiment [6], it took 8.86 µM to reach half-maximal inhibition (IC50).
Turning to `c1cncc(CNc2nccc(-c3ccc4cn[nH]c4c3)n2)c1`, the figures for the IC50 in experiment [1] (read-out: IC50) and in experiment [2] (read-out: IC50) were 0.04 µM and 0.21 µM, respectively.
Regarding `Clc1ccc(CNc2ccnc(-c3ccc4[nH]ncc4c3)n2)cc1Cl`, the IC50 in experiment [2] (read-out: IC50) was 4.63 µM; in experiment [4] it was 2.35 µM; in experiment [5], 1.78 µM; in experiment [6] it was 0.514 µM.
`COc1ccc(-c2nccc(NCc3ccc(C)cc3)n2)cc1`: the IC50 entry in experiment [1] and in experiment [2] was “Not Active” each time.
With `Fc1cc(CNc2ccnc(-c3ccc4c(c3)OCO4)n2)ccc1Cl`, the IC50 in experiment [1] (read-out: IC50) stood at 13 µM.
For `Fc1ccc(CNc2ccnc(-c3ccc4c(c3)OCO4)n2)cc1F`, in experiment [1] (read-out: IC50), the IC50 is 10.4 µM.
On the same count and under the same terms, under `Fc1cc(F)cc(CNc2ccnc(-c3ccc4c(c3)OCO4)n2)c1` stands 5.2 µM.
The same measure, in the same setting: the result for `Fc1ccc(CNc2ccnc(-c3ccc4c(c3)OCO4)n2)cc1Cl` reads 5.2 µM; that for `Fc1ccc(CNc2ccnc(-c3ccc4c(c3)OCO4)n2)cc1Br`, 13 µM.
For the compound `Fc1cc(CNc2ccnc(-c3ccc4c(c3)OCO4)n2)cc(F)c1F`, the IC50 in experiment [1] (read-out: IC50) is 8.2 µM.
With `Clc1ccc(CNc2ncncc2-c2ccc3c(c2)OCO3)cc1Cl`, the IC50 came out at 0.526 µM in experiment [7]; 0.58 µM in experiment [1] (read-out: IC50); 4.12 µM in experiment [2] (read-out: IC50); 1.56 µM in experiment [3]; 3.45 µM in experiment [4]; 0.626 µM in experiment [5]. Also, the IC50 in experiment [6] was more than 10 µM.
Turning to `Clc1ccc(CNc2cc(-c3ccc4c(c3)OCO4)ncn2)cc1`, in experiment [1] (read-out: IC50), the IC50 was determined as 2.32 µM.
On to `Clc1ccc(CNc2cc(-c3ccc4c(c3)OCO4)ncn2)cc1Cl`, for which the IC50 in experiment [1] (read-out: IC50) turned out to be 4.63 µM.
The same measure, in the same setting: the result for `Clc1cc(Cl)cc(CNc2cc(-c3ccc4c(c3)OCO4)ncn2)c1` reads 1.64 µM.
Turning to `Clc1ccc(CNc2ccnc(-c3ccc4c(c3)OCO4)n2)cn1`, the IC50 in experiment [1] (read-out: IC50) and in experiment [2] (read-out: IC50) was 29.2 µM each time.
On to `Fc1cncc(CNc2ccnc(-c3ccc4c(c3)OCO4)n2)c1`, for which, in experiment [1] (read-out: IC50), the IC50 was found to be 8.2 µM.
Same read-out and setting: under `Clc1cncc(CNc2ccnc(-c3ccc4c(c3)OCO4)n2)c1` stands 18.4 µM.
Same read-out and setting: the result for `Brc1cncc(CNc2ccnc(-c3ccc4c(c3)OCO4)n2)c1` reads 8.2 µM; that for `Cc1ccc(CNc2ccnc(-c3ccc4c(c3)OCO4)n2)cn1`, 32.8 µM; that for `c1ccc2ncc(CNc3ccnc(-c4ccc5c(c4)OCO5)n3)cc2c1`, 41.2 µM.
With `c1ccc(CNc2ccnc(-c3ccc4c(c3)OCO4)n2)nc1`, the half-inhibitory concentration (IC50) in experiment [1] (read-out: IC50) worked out at 9.2 µM.
The same measure, in the same setting: under `c1cc(CNc2ccnc(-c3ccc4c(c3)OCO4)n2)ccn1` stands 23.2 µM.
Regarding `Clc1cc(Cl)cc(CNc2ccnc(-c3ccc4c(c3)OCO4)n2)c1`, the IC50 in experiment [1] (read-out: IC50) is 4.1 µM; in experiment [2], “Not Active”.
In the same order, the values of `Brc1ccc(CNc2ccnc(-c3ccc4c(c3)OCO4)n2)cc1Br` are 9.2 µM and “Not Active”.
On to `Brc1cc(Br)cc(CNc2ccnc(-c3ccc4c(c3)OCO4)n2)c1`, for which the results for the IC50 in experiment [1] (read-out: IC50) and in experiment [2] were 9.2 µM and “Not Active”, respectively.
In the same order, the values of `COc1ccc(CNc2ccnc(-c3ccc(OC)cc3)n2)cc1` are 36.8 µM and “Not Active”.
With `c1cnc(-c2ccc3c(c2)OCO3)nc1`, the IC50 entry in experiment [1] and in experiment [2] was “Not Active” each time.
With `N#Cc1cccc(-c2ncccn2)c1`, the IC50 in experiment [1] (read-out: IC50) was 26 µM; in experiment [2], “Not Active”.
With `COc1cccc(-c2ncccn2)c1`, the IC50 in experiment [1] (read-out: IC50) is 16.4 µM.
`CN(C)c1ccc(-c2ncccn2)cc1`: the IC50 entry in experiment [1] and in experiment [2] was “Not Active” in each case.
Regarding `Cc1noc(C)c1-c1ncccn1`, the IC50 entry in experiment [1] and in experiment [2] was “Not Active” throughout.
For the compound `COc1ccc(-c2ncccn2)cc1`, the IC50 was 29.2 µM in experiment [1] (read-out: IC50) and “Not Active” in experiment [2].
As for `COc1cccc(-c2ccnc(NCc3ccc(Cl)cc3)n2)c1`, the IC50 was 6.81 µM in experiment [7]; 5.82 µM in experiment [1] (read-out: IC50); 7.33 µM in experiment [2] (read-out: IC50); more than 10 µM in experiment [3]; 6.36 µM in experiment [4]; more than 10 µM in experiment [5]. It took 6.78 µM to reach half-maximal inhibition in experiment [6] (IC50).
Regarding `COc1cccc(-c2ccnc(NCc3ccc(Cl)c(Cl)c3)n2)c1`, the IC50 in experiment [7] was 3.86 µM; in experiment [1] (read-out: IC50), 3.68 µM; in experiment [2] (read-out: IC50), 5.82 µM; in experiment [3] it was more than 10 µM; in experiment [4] it was 4.65 µM; in experiment [5], 5.46 µM. Also, the IC50 in experiment [6] was more than 10 µM.
On to `Clc1ccc(CNc2nccc(-c3ccc4c(c3)OCO4)n2)cc1`, for which the IC50 in experiment [1] (read-out: IC50) stood at 0.05 µM.
Regarding `COc1ccc(-c2ccnc(NCc3ccc(Cl)c(Cl)c3)n2)cc1OC`, the IC50 in experiment [7] is more than 10 µM; in experiment [1] (read-out: IC50) it was 26 µM; in experiment [2] (read-out: IC50) it was 26 µM; in experiment [5], more than 10 µM.
With `COc1ccc(-c2nccc(NCc3ccccc3)n2)cc1`, the results for the IC50 in experiment [1] (read-out: IC50) and in experiment [2] were 29.2 µM and “Not Active”, respectively.
In the same order, the values of `Clc1ccc(CNc2ccnc(-c3ccc4c(c3)OCO4)n2)cc1Cl` are 26 µM and “Not Active”.
Turning to `COc1cccc(-c2nccc(NCc3ccc(Cl)c(Cl)c3)n2)c1`, the IC50 in experiment [1] (read-out: IC50) was 14.6 µM; in experiment [2], “Not Active”.
Take `CN(C)c1ccc(-c2nccc(NCc3ccc(Cl)c(Cl)c3)n2)cc1`: the IC50 result in experiment [1] and in experiment [2] was “Not Active” throughout.
For `Cc1noc(C)c1-c1nccc(NCc2ccc(Cl)c(Cl)c2)n1`, the IC50 result in experiment [1] and in experiment [2] was “Not Active” in each case.
Take `Clc1ccc(CNc2ccnc(-c3cccnc3)n2)cc1Cl`: the IC50 in experiment [1] (read-out: IC50) came out at 13 µM.
In the case of `COc1ccc(-c2nccc(NCc3ccc(Cl)c(Cl)c3)n2)cc1`, the IC50 was 14.6 µM in experiment [1] (read-out: IC50) and “Not Active” in experiment [2].
In the same order, the values of `Cc1ccc(CNc2ccnc(-c3ccc4c(c3)OCO4)n2)cc1` are 23.2 µM and “Not Active”.
For the compound `Cc1ccc(CNc2ccnc(-c3cccc(C#N)c3)n2)cc1`, the IC50 in experiment [1] (read-out: IC50) stood at 23.2 µM.
As for `COc1cccc(-c2nccc(NCc3ccc(C)cc3)n2)c1`, the IC50 in experiment [1] (read-out: IC50) was 41.2 µM.
Consider `Cc1ccc(CNc2ccnc(-c3ccc(N(C)C)cc3)n2)cc1`, for which the IC50 result in experiment [1] and in experiment [2] was “Not Active” in each case.
Regarding `Cc1ccc(CNc2ccnc(-c3c(C)noc3C)n2)cc1`, the concentration for half-maximal inhibition (IC50) result in experiment [1] and in experiment [2] was “Not Active” each time.
As for `Cc1ccc(CNc2ccnc(-c3cccnc3)n2)cc1`, the IC50 in experiment [1] (read-out: IC50) was 26 µM; in experiment [2], “Not Active”.
In the same order, the values of `Clc1ccc(CNc2ccnc(-c3ccc4c(c3)OCO4)n2)cc1` are 41.2 µM and “Not Active”.
`COc1cccc(-c2nccc(NCc3ccc(Cl)cc3)n2)c1`: the IC50 in experiment [1] (read-out: IC50) worked out at 13 µM.
`CN(C)c1ccc(-c2nccc(NCc3ccc(Cl)cc3)n2)cc1`: the IC50 entry in experiment [1] and in experiment [2] was “Not Active” throughout.
On to `Cc1noc(C)c1-c1nccc(NCc2ccc(Cl)cc2)n1`, for which the IC50 result in experiment [1] and in experiment [2] was “Not Active” each time.
For `Clc1ccc(CNc2ccnc(-c3cccnc3)n2)cc1`, in experiment [1] (read-out: IC50), the IC50 is 16.4 µM.
Consider `COc1ccc(-c2nccc(NCc3ccc(Cl)cc3)n2)cc1`, for which the IC50 is 13 µM in experiment [1] (read-out: IC50) and “Not Active” in experiment [2].
For the compound `COc1ccc(CNc2ccnc(-c3ccc4c(c3)OCO4)n2)cc1`, the IC50 entry in experiment [1] is on record as “Not Active”.
Take `COc1ccc(CNc2ccnc(-c3cccc(C#N)c3)n2)cc1`: the IC50 in experiment [1] (read-out: IC50) was 9.2 µM.
On to `COc1ccc(CNc2ccnc(-c3cccc(OC)c3)n2)cc1`, for which the IC50 in experiment [1] (read-out: IC50) came to 23.2 µM.
Regarding `COc1ccc(CNc2ccnc(-c3ccc(N(C)C)cc3)n2)cc1`, the IC50 result in experiment [1] and in experiment [2] was “Not Active” each time.
Regarding `COc1ccc(CNc2ccnc(-c3c(C)noc3C)n2)cc1`, the IC50 entry in experiment [1] and in experiment [2] was “Not Active” each time.
